Assay results from patent US12446584B2, “Termiticide composition and methods for treating termites” (ADAMA MAKHTESHIM LTD., priority 2013, dated 2025).
Like-named read-outs stand apart in the source and are kept apart here.

Columns and labels:
Format in all cases: in vivo
[1] = system: Eastern subterranean termites (Reticulitermes flavipes); test: Thin plate bioassay
Description: (§1) A laboratory study was conducted, using recently collected R. flavipes and C. formosanus. Thin plate bioassays were assembled using 0.6 cm glass and 0.6 cm clear Lexan. A sheet of 20.3×66 cm glass was used for the bottom. Two pieces of 2.5×61 cm glass were laid along the long edges, and two pieces of […]. Each arena had 450 g of screened sand evenly applied, and moistened with deionized water to help hold it in place during construction of the arenas. Fisher brand tongue depressors, cut in half, were used as a food source for the termites, and placed at one end of the arena. Prior to adding the Lexan top sheets, 0.6 cm holes were drilled at one end, and three 0.6 cm treatment apertures were drilled equally spaced apart at the center line. One 8 cm Petri dish with a 0.6 cm hole drilled in the bottom was lined up with the hole at the end of the top sheet, and glued down. Glue was allowed to dry for 72 hours. Large binder clips were used to hold the arena together.
(§2) Termiticide solutions were prepared as follows: Fipronil 0.017%; Fipronil 0.03%; Imidacloprid 0.05%; Imi-Fip 0.067% (Imidacloprid 0.05%, Fipronil 0.017%); and Untreated Control (water only). Ten ml of each finished solution of termiticide were applied to each arena: each of the three treatment apertures received 3.3 ml of termiticide. The treatments were allowed to dry for 24 hours, and the treatment apertures were covered with a 2.5×7.5 cm microscope slide. In each Petri dish, 500 worker and 15 soldier termites were added, using either R. flavipes or C. formosanus. Each treatment was replicated four times. Data regarding distance tunneled and mortality were collected daily for eight days. Data was analyzed using Analysis of Variance (ANOVA) and means were separated by Tukey's HSD (Honest Significant Difference test (IBM SPSS v 19).

[2] = system: Formosan subterranean termites (Coptotermes formosanus); test: Thin plate bioassay
Description: as §1, §2

[3] = system: Formosan Coptotermes formosanus termites; test: Transfer effects among nestmates (donor/recipient Petri dish arenas); conditions: donors treated with 50 ppm; for mortality at 50 ppm: Coptotermes formosanus
Description: (§3) The purpose of this study was to determine whether there is transference of […] among nestmates of subterranean termites. Arenas for this study consisted of a 15 cm Petri dish. […] Donor and untreated marked control termites were marked using RustOleum® Marking Paint, using methodology described by Keefer et al. 2012.
(§4) Two untreated soldier termites for each species were added to each arena to simulate colony dynamics. Post-treatment observations for mortality were made at 4 h and then daily through day 7.

[4] = system: Eastern Subterranean Reticulitermes flavipes termites; test: as above; conditions: Reticulitermes flavipes, donors treated with 50 ppm
Description: as §3, §4

[5] = 0.017% solution, 1 day post-treatment
[6] = 0.017% solution, 2 days post-treatment
[7] = 0.017% solution, 3 days post-treatment
[8] = 0.017% solution, 4 days post-treatment
[9] = 0.017% solution, 5 days post-treatment
[10] = 0.017% solution, 6 days post-treatment
[11] = 0.017% solution, 7 days post-treatment
[12] = 0.017% solution, 8 days post-treatment
[13] = 0.03% solution, 1 day post-treatment
[14] = 0.03% solution, 2 days post-treatment
[15] = 0.03% solution, 3 days post-treatment
[16] = 0.03% solution, 4 days post-treatment
[17] = 0.03% solution, 5 days post-treatment
[18] = 0.03% solution, 6 days post-treatment
[19] = 0.03% solution, 7 days post-treatment
[20] = 0.03% solution, 8 days post-treatment
[21] = 4 h, donor:recipient ratio 1:19, 4 h, read-out: Mean total % mortality of donors and recipients
[22] = 4 h, donor:recipient ratio 5:15, 4 h, read-out: Mean total % mortality of donors and recipients
[23] = 4 h, donor:recipient ratio 10:10, 4 h, read-out: Mean total % mortality of donors and recipients
[24] = 4 h, donor:recipient ratio 15:5, 4 h, read-out: Mean total % mortality of donors and recipients
[25] = 24 h, by treatment (all ratios), 1 d, read-out: Mean % mortality of donors and recipients
[26] = 24 h, donor:recipient ratio 1:19, 1 d, read-out: Mean total % mortality of donors and recipients
[27] = 24 h, donor:recipient ratio 5:15, 1 d, read-out: Mean total % mortality of donors and recipients
[28] = 24 h, donor:recipient ratio 10:10, 1 d, read-out: Mean total % mortality of donors and recipients
[29] = 24 h, donor:recipient ratio 15:5, 1 d, read-out: Mean total % mortality of donors and recipients
[30] = 48 h, by treatment (all ratios), 2 d, read-out: Mean % mortality of donors and recipients
[31] = 48 h, donor:recipient ratio 1:19, 2 d, read-out: Mean total % mortality of donors and recipients
[32] = 48 h, donor:recipient ratio 5:15, 2 d, read-out: Mean total % mortality of donors and recipients
[33] = 48 h, donor:recipient ratio 10:10, 2 d, read-out: Mean total % mortality of donors and recipients
[34] = 48 h, donor:recipient ratio 15:5, 2 d, read-out: Mean total % mortality of donors and recipients
[35] = 72 h, by treatment (all ratios), 3 d, read-out: Mean % mortality of donors and recipients
[36] = 72 h, donor:recipient ratio 1:19, 3 d, read-out: Mean total % mortality of donors and recipients
[37] = 72 h, donor:recipient ratio 5:15, 3 d, read-out: Mean total % mortality of donors and recipients
[38] = 72 h, donor:recipient ratio 10:10, 3 d, read-out: Mean total % mortality of donors and recipients
[39] = 72 h, donor:recipient ratio 15:5, 3 d, read-out: Mean total % mortality of donors and recipients
[40] = 96 h, by treatment (all ratios), 4 d, read-out: Mean % mortality of donors and recipients
[41] = 96 h, donor:recipient ratio 1:19, 4 d, read-out: Mean total % mortality of donors and recipients
[42] = 96 h, donor:recipient ratio 5:15, 4 d, read-out: Mean total % mortality of donors and recipients
[43] = 96 h, donor:recipient ratio 10:10, 4 d, read-out: Mean total % mortality of donors and recipients
[44] = 96 h, donor:recipient ratio 15:5, 4 d, read-out: Mean total % mortality of donors and recipients
[45] = 120 h, by treatment (all ratios), 5 d, read-out: Mean % mortality of donors and recipients
[46] = 120 h, donor:recipient ratio 1:19, 5 d, read-out: Mean total % mortality of donors and recipients
[47] = 120 h, donor:recipient ratio 5:15, 5 d, read-out: Mean total % mortality of donors and recipients
[48] = 120 h, donor:recipient ratio 10:10, 5 d, read-out: Mean total % mortality of donors and recipients
[49] = 120 h, donor:recipient ratio 15:5, 5 d, read-out: Mean total % mortality of donors and recipients
[50] = 144 h, by treatment (all ratios), 6 d, read-out: Mean % mortality of donors and recipients
[51] = 144 h, donor:recipient ratio 1:19, 6 d, read-out: Mean total % mortality of donors and recipients
[52] = 144 h, donor:recipient ratio 5:15, 6 d, read-out: Mean total % mortality of donors and recipients
[53] = 144 h, donor:recipient ratio 10:10, 6 d, read-out: Mean total % mortality of donors and recipients
[54] = 144 h, donor:recipient ratio 15:5, 6 d, read-out: Mean total % mortality of donors and recipients
[55] = 168 h, by treatment (all ratios), 7 d, read-out: Mean % mortality of donors and recipients
[56] = 168 h, donor:recipient ratio 1:19, 7 d, read-out: Mean total % mortality of donors and recipients
[57] = 168 h, donor:recipient ratio 5:15, 7 d, read-out: Mean total % mortality of donors and recipients
[58] = 168 h, donor:recipient ratio 10:10, 7 d, read-out: Mean total % mortality of donors and recipients
[59] = 168 h, donor:recipient ratio 15:5, 7 d, read-out: Mean total % mortality of donors and recipients

Structure (SMILES): N#Cc1nn(-c2c(Cl)cc(C(F)(F)F)cc2Cl)c(N)c1[S+]([O-])C(F)(F)F [Fipronil, 5-amino-1-[2,6-dichloro-4-(trifluoromethyl)phenyl]-4-[(1-R,S)(trifluoromethyl)sulfinyl]-1H-pyrazole-3-carbonitrile]
- Mean % mortality [1, 5]: 5.25 a %
- Mean % mortality [1, 6]: 30.50 a %
- Mean % mortality [1, 7]: 75.00 a %
- Mean % mortality [1, 8]: 77.50 a %
- Mean % mortality [1, 9]: 90.00 b %
- Mean % mortality [1, 10]: 95.50 b %
- Mean % mortality [1, 11]: 100.00 a %
- Mean % mortality [1, 12]: 100.00 a %
- Mean % mortality [1, 13]: 0.75 b %
- Mean % mortality [1, 14]: 2.25 b %
- Mean % mortality [1, 15]: 67.50a %
- Mean % mortality [1, 16]: 70.00 a %
- Mean % mortality [1, 17]: 90.00 b %
- Mean % mortality [1, 18]: 100.00 a %
- Mean % mortality [1, 19]: 100.00 a %
- Mean % mortality [1, 20]: 100.00 a %
- Mean % mortality [2, 5]: 1.37 a %
- Mean % mortality [2, 6]: 8.62 b %
- Mean % mortality [2, 7]: 15.00 a %
- Mean % mortality [2, 8]: 30.60 a %
- Mean % mortality [2, 9]: 72.20 a %
- Mean % mortality [2, 10]: 72.20 c %
- Mean % mortality [2, 11]: 83.50 b %
- Mean % mortality [2, 12]: 100.00a %
- Mean % mortality [2, 13]: 5.05 a %
- Mean % mortality [2, 14]: 17.25ab %
- Mean % mortality [2, 15]: 19.75 a %
- Mean % mortality [2, 16]: 49.40 a %
- Mean % mortality [2, 17]: 70.50 a %
- Mean % mortality [2, 18]: 99.25 a %
- Mean % mortality [2, 19]: 100.00 a %
- Mean % mortality [2, 20]: 100.00a %
- mortality at 50 ppm [3, 21]: 0%
- mortality at 50 ppm [3, 22]: 3.75%
- mortality at 50 ppm [3, 23]: 17.5%
- mortality at 50 ppm [3, 24]: 16.2%
- mortality at 50 ppm [3, 25]: 50.6%
- mortality at 50 ppm [3, 26]: 0%
- mortality at 50 ppm [3, 27]: 2.5%
- mortality at 50 ppm [3, 28]: 100%
- mortality at 50 ppm [3, 29]: 100%
- mortality at 50 ppm [3, 30]: 53.1%
- mortality at 50 ppm [3, 31]: 8.75%
- mortality at 50 ppm [3, 32]: 3.75%
- mortality at 50 ppm [3, 33]: 100%
- mortality at 50 ppm [3, 34]: 100%
- mortality at 50 ppm [3, 35]: 59.7%
- mortality at 50 ppm [3, 36]: 18.8%
- mortality at 50 ppm [3, 37]: 20%
- mortality at 50 ppm [3, 38]: 100%
- mortality at 50 ppm [3, 39]: 100%
- mortality at 50 ppm [3, 40]: 67.8%
- mortality at 50 ppm [3, 41]: 25%
- mortality at 50 ppm [3, 42]: 46.2%
- mortality at 50 ppm [3, 43]: 100%
- mortality at 50 ppm [3, 44]: 100%
- mortality at 50 ppm [3, 45]: 82.5%
- mortality at 50 ppm [3, 46]: 30%
- mortality at 50 ppm [3, 47]: 100%
- mortality at 50 ppm [3, 48]: 100%
- mortality at 50 ppm [3, 49]: 100%
- mortality at 50 ppm [3, 50]: 85.5%
- mortality at 50 ppm [3, 51]: 30%
- mortality at 50 ppm [3, 52]: 100%
- mortality at 50 ppm [3, 53]: 100%
- mortality at 50 ppm [3, 54]: 100%
- mortality at 50 ppm [3, 55]: 90%
- mortality at 50 ppm [3, 56]: 60%
- mortality at 50 ppm [3, 57]: 100%
- mortality at 50 ppm [3, 58]: 100%
- mortality at 50 ppm [3, 59]: 100%
- Mean % mortality of donors and recipients ([3]; by treatment (all ratios), 4 h): 9.37 b %
- Mean % mortality of donors and recipients ([3]; by treatment (all ratios), 4 h, listed as fipronil): 1%
- mortality at 50 ppm ([4]; 4 h, by treatment (all ratios), 4 h, read-out: Mean % mortality of donors and recipients): 3.75%
- mortality at 50 ppm [4, 21]: 3.75%
- mortality at 50 ppm [4, 22]: 5%
- mortality at 50 ppm [4, 23]: 1.25%
- mortality at 50 ppm [4, 24]: 5%
- mortality at 50 ppm [4, 25]: 23.5%
- mortality at 50 ppm [4, 26]: 10%
- mortality at 50 ppm [4, 27]: 17.5%
- mortality at 50 ppm [4, 28]: 17.5%
- mortality at 50 ppm [4, 29]: 56.2%
- mortality at 50 ppm [4, 30]: 57.2%
- mortality at 50 ppm [4, 31]: 16.2%
- mortality at 50 ppm [4, 32]: 53.8%
- mortality at 50 ppm [4, 33]: 71.2%
- mortality at 50 ppm [4, 34]: 87.5%
- mortality at 50 ppm [4, 35]: 70.3%
- mortality at 50 ppm [4, 36]: 22.5%
- mortality at 50 ppm [4, 37]: 70%
- mortality at 50 ppm [4, 38]: 88.8%
- mortality at 50 ppm [4, 39]: 100%
- mortality at 50 ppm [4, 40]: 72.8%
- mortality at 50 ppm [4, 41]: 26.2%
- mortality at 50 ppm [4, 42]: 72.5%
- mortality at 50 ppm [4, 43]: 92.5%
- mortality at 50 ppm [4, 44]: 100%
- mortality at 50 ppm [4, 45]: 83.8%
- mortality at 50 ppm [4, 46]: 52.5%
- mortality at 50 ppm [4, 47]: 82.5%
- mortality at 50 ppm [4, 48]: 100%
- mortality at 50 ppm [4, 49]: 100%
- mortality at 50 ppm [4, 50]: 98.1%
- mortality at 50 ppm [4, 51]: 97.5%
- mortality at 50 ppm [4, 52]: 95%
- mortality at 50 ppm [4, 53]: 100%
- mortality at 50 ppm [4, 54]: 100%
- mortality at 50 ppm [4, 55]: 100%
- mortality at 50 ppm [4, 56]: 100%
- mortality at 50 ppm [4, 57]: 100%
- mortality at 50 ppm [4, 58]: 100%
- mortality at 50 ppm [4, 59]: 100%
